# Test results reported in patent publication US9527817B2, “Compounds for treating peripheral; neuropathies and other neurodegenerative; disorders” (THE JOHNS HOPKINS UNIVERSITY, priority 2011, dated 2016).
# “Also recorded” adds a separate entry of the source.
# Assays:
# [1] = tested on: four different human breast cancer cell lines: MCE-7, SUM-159, TATD, and MDA-MB-231; assay: Antineoplastic activity of paclitaxel with or without EQ (cellular ATP levels); assay type: cell-based; conditions: paclitaxel co-administered with varying concentrations of EQ
# Experimental: To determine the effect of EQ on the antineoplastic activity of paclitaxel, the conditions for culturing four cancer cell lines and measuring the ATP levels were optimized for the 96-well plate format. Briefly, 1500 cells/well in media (MDA-MB-231 in DMEM with 10% FBS; MCF-7 in DMEM with 10% FBS; TATD in RPMI with 10% FBS; SUM159 in DMEM/F-12 (250 mL/250 mL) with 5% FBS, 500 μL of 10 mg/mL insulin and 25 μL of 10 mg/mL hydrocordisol) were plated in 96-well plates for 24 h. Constant concentrations of paclitaxel (PTX) with or without EQ were added to the wells for another 24 h. Cellular ATP levels were measured using ViaLight Plus kit (Cambrex) according to the manufacturer's protocol on a LMaxI microplate reader (Molecular Devices, Palo Alto, Calif.).
# hsp90 [2] = assay: Colorimetric (malachite green) determination of hsp90 ATPase activity; assay type: biochemical; conditions: wide dose range of EQ
# Experimental: The assay procedure for the colorimetric determination of ATPase activity was based on Rowlands et al., “High-throughput Screening Assay for Inhibitors of Heat-Shock Protein 90 ATPase Activity,” Analytical Biochemistry 327:176-183 (2004). The malachite green reagent was prepared on the day of use. It contained malachite green (Sigma Aldrich, St. Louis, Mo.; 0.0812%, w/v), polyvinyl alcohol (Sigma Aldrich, St. Louis, Mo.; 2.32%, w/v), ammonium molybdate (Sigma Aldrich, St. Louis, Mo.; 5.72%, w/v, in 6 M HCl), and UltraPure Distilled Water (Invitrogen, Life Technologies, Carlsbad, Calif.), mixed in the ratio 2:1:1:2. The reagent was initially dark brown, and then it changed to a golden yellow after 2 h at room temperature, which meant it was ready for use. The assay buffer (pH 7.4) was 100 mM Tris-HCl, 20 mM KCl, 6 mM MgCl2.
# The test compounds were dissolved in 100% (v/v) DMSO to give a stock concentration of 10 mM. This solution was diluted to six appropriate concentrations with test compounds in the assay buffer. 5 μL of each compound solution was added to each well of the Perkin-Elmer 96-well assay plate. The first two rows of the 96-well plate contained DMSO only, representing the control and background values, respectively. […] The absorbance at 620 nm was measured using the SpectraMAX 340PC microplate reader (Molecular Devices, Palo Alto, Calif.). […]
# hsp90 [3] = assay: Binding efficacy of paclitaxel to hsp90 in the presence of EQ
# Experimental: Further, it was known that paclitaxel binds to hsp90. To determine if EQ was binding to the same site and displacing paclitaxel, the binding efficacy of paclitaxel to hsp90 was measured. […] It is possible that EQ binds to hsp90 and modifies its chaperone activity for an important client protein.
# diabetic rats = assay: Diabetic rats: distal axonal degeneration and autonomic testing; assay type: in vivo, rat; conditions: data not shown
# hsp90 [4] = assay: Neuroprotection by EQ with hsp90 siRNA or control siRNA; assay type: cell-based, rat
# Experimental: For the RNA inhibition experiments, transfection with siRNA was carried out according to the manufacturer's protocol. 50B11 cells were plated in 6-well plates in culture medium (Neurobasal medium, 10% fetal bovine serum (FBS), 0.5 mM glutamine, 1×B-27 supplement, 0.2% glucose) without antibiotics overnight and allowed to reach 50-70% confluence. On the second day, 1 μL siRNA oligomer (Ambion, Life Technologies, Carlsbad, Calif.) was diluted in 250 μL Opti-MEM media, and 5 μL Lipofectation 2000 (Invitrogen, Life Technologies, Carlsbad, Calif.) in another 250 μL Opti-MEM media. After 5 minutes incubation, dilutions were combined and incubated for 20 minutes at RT and then the oligomer-Lipofectation 2000 complexes were added to each well. […]
# The protein isolation, protein electrophoresis (SDS-PAGE) and Western blotting assays were performed according to the instructions of the manufacturer. […] The measurements of total protein concentrations were performed using BCA kits (Thermo Scientific, Logan, Utah) on SpectraMax 340PC microplate reader (Molecular Devices, Palo Alto, Calif.). Samples (30 μg of total protein per well) and standards (SeeBlue® Plus2 Pre-Stained Standard, Invitrogen, Life Technologies, Carlsbad, Calif.) were loaded onto the wells (Ready Gel® 4-15% Tris-HCl, 50 μL^−1 gel; Bio-Rad, Hercules, Calif.). […]
# recombinant hsp90 = assay: Fluorescence quenching binding assay; conditions: 25° C.
# Experimental: For the fluorescence-quenching assay, fluorescence intensity was recorded on a SpectraMax Gemini XS plate reader (Molecular Devices, Palo Alto, Calif.) using a 96-well black PCR plate (Thermo Scientific, Logan, Utah). Compounds (10 mM in ethanol) were diluted with 50 mM Tris-HCl (pH 7.4) to obtain a solution with a 15 μM final concentration. Aliquots of proteins were added to the compounds solution and mixed with micro pipette by gently pulling in and drawing out the solution. Fluorescence intensities (λex=350 nm, λem=450 nm) were measured at 25° C. Equilibrium dissociation constant KD was obtained by fitting the data using the nonlinear least squares option of the GraphPad Prism software. All experiments were completed in duplicates and repeated at least three times.
# To determine the binding efficiency, fluorescence quenching experiments were carried out with recombinant hsp90.
# [5] = tested on: mouse model of HIV-associated sensory neuropathy; assay: Mouse model of HIV-associated sensory neuropathy; assay type: in vivo; conditions: 75 μg/kg/day; data not shown
# primary DRG neurons = assay: Axon length assay, paclitaxel-induced distal axonal degeneration; assay type: cell-based, rat; conditions: 24 hours exposure, βIII-tubulin staining
# Experimental: Measurements of axonal lengths to determine axonal degeneration induced by EQ and representative derivatives were done as described in Keswani et al., “FK506 is neuroprotective in a model of antiretroviral toxic neuropathy,” Annals of Neurology, 53(1):57-64 (2003). Initially, dorsal root ganglia (DRG) cells were harvested from embryonic rats (14.5 days old) according to standard protocol, then cells were plated onto collagen-coated glass coverslips and allowed to extend axons for 24 h in media (Neurobasal medium, 50 mM PS, 0.2% fetal bovine serum (FBS), 0.5 mM glutamine, 1×B-27 supplement, 0.2% glucose, 10 ng/mL glial cell line-derived neurotrophic factor (GDNF)). Paclitaxel (PTX), EQ and representative derivatives, or vehicle controls were added to the wells for another 24 h incubation. DRG cells were fixed with 4% paraformaldehyde and stained with anti-βIII-tubulin antibody to delineate the axons. Axon lengths were measured in multiple fields using a random sampling method as described by Keswani et al., 2003. All experiments were performed in triplicates and repeated twice. Statistical analysis was done using the ANOVA procedure. Correction for multiple comparisons was completed with Fisher's protected least significant difference. Bars marked with * indicate statistically significant differences with p<0.05.
# AJ mice treated with PTX = assay: Mouse model of chemotherapy induced peripheral neuropathy (paclitaxel); assay type: in vivo; conditions: various doses daily, PTX 25 mg/kg i.v. days 1, 3, 5
# Experimental: In this model, animals develop thermal hypoalgesia and reduction in sensory nerve action potential (SNAP) amplitudes. AJ mice were given three doses of PTX at 25 mg/kg intravenously every other day (days 1, 3 and 5). Vehicle control or EQ was administered daily starting on day 1 and tissues were harvested at day 19. Immediately before tissue harvest, sensory nerve conduction studies and thermal sensation measurements were carried out.
substance,measurement,setting,value
Ethoxyquin [EQ],effect on paclitaxel's reduction of cell viability (relative ATP levels),[1],did not affect the ability of paclitaxel to reduce cell viability; also recorded: no significant change in reduced cell viability was observed
same,effect on ATPase activity of hsp90,hsp90 [2],does not affect the ATPase activity of hsp90; also recorded: does not alter the ATPase activity of hsp90
same,effect on binding of paclitaxel to hsp90,hsp90 [3],did not affect the binding of paclitaxel to hsp90; also recorded: does not alter the binding efficacy of paclitaxel to hsp90
same,distal axonal degeneration,diabetic rats; 75 μg/kg/day,reverses distal axonal degeneration
same,erectile dysfunction induced by diabetes (autonomic testing),diabetic rats,prevents erectile dysfunction induced by diabetes
same,neuroprotection against paclitaxel with hsp90 siRNA,"hsp90 [4]; PTX+100 nM EQ (+) siRNA, hsp90 downregulated",the neuroprotection by EQ disappeared; also recorded: reverses neuroprotection by EQ
same,neuroprotection against paclitaxel without hsp90 siRNA,hsp90 [4]; PTX+100 nM EQ (−) siRNA,Neuroprotection by EQ can be seen
same,Kd,recombinant hsp90,280 nM
same,distal axonal degeneration,[5],prevents distal axonal degeneration
same,distal axonal degeneration induced by PTX (axon lengths),primary DRG neurons,partially prevented distal axonal degeneration induced by PTX
same,sensory nerve action potential (SNAP) amplitude,AJ mice treated with PTX; tail sensory nerves,prevented this reduction in SNAP amplitude
same,distal axonal degeneration and intraepidermal nerve fiber density in the footpads,AJ mice treated with PTX,loss of distal axons was prevented
same,thermal hypoalgesia induced by PTX,AJ mice treated with PTX,prevented
